Values of other authors, collected in US20150335557A1, “ANTI-PLAQUE ORAL COMPOSITIONS” (priority 2012, published 2015).

Details: @ 79° F.

CS(C)(=O)=O [MSM, methylsulfonylmethane]
water solubility: 34 % w/v
